Like-named read-outs stand apart in the source and are kept apart here.
Legend:
Format in all cases: cell-based, Staphylococcus aureus
S. aureus (MN8) = details: for TSST-1 produced compared to the control: S. aureus MN8, in the presence of the compound
S. aureus FRI-1169 = details: S. aureus FRI-1169, in the presence of triclosan
S. aureus FRI-1187 = details: S. aureus FRI-1187, in the presence of triclosan

| SMILES | Reduction of Toxin (%) (S. aureus (MN8)) | reduced the amount of toxin produced (S. aureus (MN8)) | TSST-1 produced compared to the control (S. aureus (MN8)) | Reduction of Toxin (%) (S. aureus (MN8); S. aureus MN8, test compound 2 μg/mL, 24 h, vs methanol control) | Reduction of Toxin (%) (S. aureus (MN8); S. aureus MN8, test compound 0.01 μg/mL, 24 h, vs methanol control) | TSST-1 produced compared to the control (S. aureus FRI-1169) | TSST-1 produced compared to the control (S. aureus FRI-1187) |
| --- | --- | --- | --- | --- | --- | --- | --- |
| Oc1ccc(Cc2ccccc2)cc1 [4-Hydroxydiphenyl-methane, 4-hydroxydiphenyl methane] | 24% | about 24% | – | – | – | – | – |
| Oc1c(Cl)cc(Cl)c(Cl)c1Cc1c(O)c(Cl)cc(Cl)c1Cl [Hexachlorophene, hexachlorophene] | – | – | significantly less | 68% | – | – | – |
| Oc1cc(Cl)ccc1Oc1ccc(Cl)cc1Cl [Triclosan, triclosan] | – | – | significantly less | – | 88% | produced less TSST-1 | produced less TSST-1 |
